Reference: patent US9808003B2, “Herbicidally active 2-(substituted-phenyl)-cyclopentane-1,3-dione compounds and derivatives thereof” (Syngenta Limited, priority 2013, dated 2017)

How the values were obtained:
Assay in all cases: Test 1A glasshouse assay, post-emergence herbicidal activity
Type in all cases: in vivo
[1] = tested on: Alopecurus myosuroides (ALOMY); details: Alopecurus myosuroides, 312 h, application rate 250 g/ha, 13 days after application, visual (100%=total damage; 0%=no damage), read-out: Post-emergence Herbicidal Activity (% Phytotoxicity) ALOMY
Procedure, shortened: (§1)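 Read-out is visual percent phytotoxicity 13 days post-spray, 100% meaning total plant damage and 0% none. Seedlings were treated after 8 days' glasshouse cultivation with an aqueous spray of active ingredient in acetone/water 50:50 plus 0.5% Tween 20.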

Lolium perenne (LOLPE) = details: Lolium perenne, 312 h, application rate 250 g/ha, 13 days after application, visual (100%=total damage; 0%=no damage), read-out: Post-emergence Herbicidal Activity (% Phytotoxicity) LOLPE
Procedure, shortened: as §1

[2] = tested on: Echinochloa crus-galli (ECHCG); details: Echinochloa crus-galli, 312 h, application rate 250 g/ha, 13 days after application, visual (100%=total damage; 0%=no damage), read-out: Post-emergence Herbicidal Activity (% Phytotoxicity) ECHCG
Procedure, shortened: as §1

Avena fatua (AVEFA) = details: Avena fatua, 312 h, application rate 250 g/ha, 13 days after application, visual (100%=total damage; 0%=no damage), read-out: Post-emergence Herbicidal Activity (% Phytotoxicity) AVEFA
Procedure, shortened: as §1

Compound	pest or weed control at 250 g/ha [1] [%]	pest or weed control at 250 g/ha (Lolium perenne (LOLPE)) [%]	pest or weed control at 250 g/ha [2] [%]	pest or weed control at 250 g/ha (Avena fatua (AVEFA)) [%]
CC#Cc1cc(C)c(C2C(=O)CC(CCNC(=O)c3cccc(F)n3)C2=O)c(C)c1 (centres unmarked) [Compound A114]	100	100	100	100
CCCCC(=O)OC1=C(c2c(C)cc(C)cc2C)C(=O)C(CCNC(=O)c2ccc(Br)cn2)C1 (centres unmarked) [Compound P12]	100	100	100	100
Cc1cc(C)c(C2C(=O)CC(CCNC(=O)c3nn(C)cc3C(F)(F)F)C2=O)c(C)c1 (centres unmarked) [Compound A77]	70	90	90	90
Cc1cc(Cl)c(C2C(=O)CC(CCNC(=O)c3ccccn3)C2=O)c(Cl)c1 (centres unmarked) [Compound A105]	40	90	100	90
Cc1cc(-n2cc(Cl)cn2)cc(C)c1C1C(=O)CC(CCNC(=O)c2cccc(F)n2)C1=O (centres unmarked) [Compound A135]	100	100	100	90
Cc1cc(C)c(C2C(=O)CC(CCNC(=O)c3nc(C)oc3C(F)(F)F)C2=O)c(C)c1 (centres unmarked) [Compound A71]	100	100	80	90
Cc1cc(C)c(C2C(=O)CC(CCNC(=O)c3nonc3C)C2=O)c(C)c1 (centres unmarked) [Compound A51]	100	100	90	90
Cc1cc(C)c(C2C(=O)CC(CCNC(=O)c3c(Cl)c(C(F)(F)F)nn3C)C2=O)c(C)c1 (centres unmarked) [Compound A161]	90	100	100	100
CCOc1cccc(C(=O)NCCC2CC(=O)C(c3c(C)cc(C)cc3C)C2=O)n1 (centres unmarked) [Compound A92]	80	70	70	80
Cc1cc(C)c(C2C(=O)CC(CCNC(=O)c3ccc(Cl)c(Cl)c3)C2=O)c(C)c1 (centres unmarked) [Compound A6]	30	90	90	60
CCc1cc(-c2ccc(F)cc2)cc(C)c1C1C(=O)CC(CCNC(=O)c2ccccn2)C1=O (centres unmarked) [Compound A86, N-[2-[3-[2-ethyl-4-(4-fluorophenyl)-6-methyl-phenyl]-2,4-dioxo-cyclopentyl]ethyl]pyridine-2-carboxamide]	100	100	100	100
Cc1cc(-n2cc(Cl)cn2)cc(C)c1C1C(=O)CC(CCNC(=O)c2ccc(C#N)cn2)C1=O (centres unmarked) [Compound A137]	80	80	100	70
COc1cc(C(=O)NCCC2CC(=O)C(c3c(C)cc(C)cc3C)C2=O)cc(Cl)n1 (centres unmarked) [Compound A28]	100	70	80	50
Cc1cc(-n2cc(Cl)cn2)cc(C)c1C1C(=O)CC(CCNC(=O)c2ncccc2F)C1=O (centres unmarked) [Compound A133]	100	100	100	90
Cc1cc(C)c(C2C(=O)CC(CCNC(=O)c3c(C)nc4ccccn34)C2=O)c(C)c1 (centres unmarked) [Compound A76]	70	60	80	90
Cc1cc(C)c(C2C(=O)CC(CCNC(=O)c3nccnc3Cl)C2=O)c(C)c1 (centres unmarked) [Compound A194]	80	90	100	90
COc1cccc(C(=O)NCCC2CC(=O)C(c3c(C)cc(C)cc3C)C2=O)n1 (centres unmarked) [Compound A91]	80	80	80	80
CC#Cc1cc(C)c(C2C(=O)CC(CCNC(=O)c3ccc(F)cc3)C2=O)c(C)c1 (centres unmarked) [Compound A116]	90	100	100	100
Cc1cc(C)c(C2C(=O)CC(CCNC(=O)c3cccc(N)n3)C2=O)c(C)c1 (centres unmarked) [Compound A66]	80	60	70	40
Cc1cc(C)c(C2C(=O)CC(CCNC(=O)c3nc(Cl)ccc3Br)C2=O)c(C)c1 (centres unmarked) [Compound A40]	100	100	100	100
